The text below walks through data of article PMC11855086, “Synthesis, Antimicrobial Activity, and Tyrosinase Inhibition by Multifunctional 3,4-Dihydroxy-Phenyl Peptidomimetics” (International Journal of Molecular Sciences, 2025).

The target of series [1] is T1, mushroom tyrosinase (mTYR) (Agaricus bisporus, UniProt C7FF04).
T1 construct: purchased Sigma-Aldrich (Poznan, Poland); host or cells: Agaricus bisporus (extracted natural enzyme)
As to the kind of experiment: Tyrosinase assay with L-DOPA as substrate (absorbance at 475 nm). It counts as biochemical. The settings on record: 100 µM compound. The source says:
Tyrosinase (Tyr) extracted from Agaricus bisporus (mushroom tyrosinase, mTYR) is commonly used as a model enzyme for human Tyr due to its high purity, stability, and commercial availability. It is frequently used in the selection of TYR inhibitors. Following established literature protocols, L-tyrosine and L-DOPA, which serve as substrates for monophenol and diphenol oxidation, respectively, were used to assess the tyrosinase inhibitory activity of synthesized target compounds [21].
Tyrosinase (Tyr) activity was measured using L-DOPA as substrate and phosphate buffer solution (PBS) as blank control, following the method described by Min He et al. (2022) with an ultraviolet spectrophotometer (Carry-300, Agilent Life Sciences and Chemical Analysis, Santa Clara, CA, USA). […] Before the experiment, 2.9 mL of PBS and 0.1 mL of DMSO were used to account for the influence of the background solvent. The inhibitor solution (100 µL), substrate solution (2.8 mL), and Tyr solution (100 µL) were then added to a quartz colorimetric cuvette. After a one-minute mixing period, the absorption spectra of the mixture were continuously recorded at 475 nm using the UV spectrophotometer (Carry-300) for 5 min over a period of every 30 s. The tyrosinase inhibition rate was calculated as follows:Relative enzyme activity (%) = (A1 − A2)/A1 × 100
A1 = Absorbance of L-DOPA and inhibitor.
A2 = Absorbance of L-DOPA, inhibitor, and tyrosinase.

The subject of a further series is E. cloacae (ATCC 49141). Description: MIC and MBC, microtiter plate technique. Format: cell-based. The conditions noted are these: ATCC49141, Enterobacter cloacae; for MIC: 24 h, resazurin; for MBC: TTC.
Another series concerns S. aureus (ATCC 23235). As to the kind of experiment: microbe, parasite or virus in culture. Format: cell-based. The settings on record: Staphylococcus aureus; for MBC: ATCC23235; for MIC: ATCC23235, 24 h.
The subject of another series is E. coli R4 (ATCC 39543). Description: MIC and MBC, microtiter plate technique. Format: cell-based. The conditions noted are these: Escherichia coli; for MBC: ATCC39543; for MIC: ATCC39543, 24 h.
For series [2], the system named is A. baumannii (ATCC 17978). As to the kind of experiment: MIC and MBC, microtiter plate technique. The settings on record: ATCC17978, Acinetobacter baumannii; for MIC: 24 h, resazurin; for MBC: TTC. It counts as cell-based.
In series [3] the test system is P. aeruginosa (ATCC 15442). As to the kind of experiment: MIC and MBC, microtiter plate technique. Format: cell-based. The settings on record: ATCC15442, Pseudomonas aeruginosa; for MIC: 24 h, resazurin; for MBC: TTC.
A further series deals with E. coli R3 (ATCC 11775). As to the kind of experiment: MIC and MBC, microtiter plate technique. It counts as cell-based. The settings on record: Escherichia coli; for MIC: ATCC11775, 24 h, resazurin; for MBC: ATCC11775, TTC.
The nature of a further series: MTT cytotoxicity assay. Format: cell-based. The conditions noted are these: mouse, BALB/c3T3 mouse embryonic fibroblast cells; 1.0 µM, 24 h; read-out: cell viability. How it is done:
Following the completion of MIC and MBC assays on the analyzed bacterial strains, and subsequent treatment with Fpg protein modified by peptidomimetics along with selected antibiotics, a further MTT assay was conducted to evaluate the cytotoxicity of the compounds employing the BALB/c3T3 mouse embryonic fibroblast cell line (Figure 10).
BALB/c3T3 mouse embryonic fibroblast cells were exposed to peptidomimetics across concentrations ranging from 0.5 µM to 3.5 µM and incubated for a duration of 24 h. […] The highest concentrations (2.5 µM and 3.5 µM) inhibited cell viability, which was reduced to 20.2% and 1.0%, respectively (Figure 10 and Figure S40 in the Supplementary Materials).
The cytotoxic effects of aldehyde 1 and peptidomimetics 5a–r on BALB/c3T3 mouse fibroblast cells were assessed utilizing the MTT assay following a 24 h incubation period across five different concentrations (0.5, 1.0, 1.5, 2.5, and 3.5 µM). The MTT assay is predicated upon the capacity of mitochondrial dehydrogenase enzymes to convert the water-soluble tetrazolium salt, 3-([…])-2,5-diphenyltetrazolium bromide (MTT), into an insoluble formazan product, manifesting as dark blue crystals. These formazan crystals are then dissolved in DMSO or isopropanol, forming a colored solution whose intensity is measured spectrophotometrically within the wavelength range of 492–570 nm. The amount of MTT reduced corresponds to the oxidative activity of the mitochondria, which is directly proportional to the number of metabolically active cells in the population under defined experimental conditions. The MTT assay can also be used to assess cell viability in non-dividing metabolically active cells. It is one of the most widely used methods to assess cytotoxic activity and is recommended by international standards organizations as a reference method.

The test system of a further series is E. coli R2 (ATCC 39544). Description: MIC and MBC, microtiter plate technique. Format: cell-based. The settings on record: Escherichia coli; for MBC: ATCC39544; for MIC: ATCC39544, 24 h.
For another series, the system named is E. coli K12 (ATCC 25404). Description: MIC and MBC, microtiter plate technique. It counts as cell-based. The settings on record: Escherichia coli; for MBC: ATCC25404; for MIC: ATCC25404, 24 h.

≈ marks a conversion by molar mass, not a printed value. Bounds are passed on as bounds.

T1 sequence (C7FF04 1-392 limits assumed): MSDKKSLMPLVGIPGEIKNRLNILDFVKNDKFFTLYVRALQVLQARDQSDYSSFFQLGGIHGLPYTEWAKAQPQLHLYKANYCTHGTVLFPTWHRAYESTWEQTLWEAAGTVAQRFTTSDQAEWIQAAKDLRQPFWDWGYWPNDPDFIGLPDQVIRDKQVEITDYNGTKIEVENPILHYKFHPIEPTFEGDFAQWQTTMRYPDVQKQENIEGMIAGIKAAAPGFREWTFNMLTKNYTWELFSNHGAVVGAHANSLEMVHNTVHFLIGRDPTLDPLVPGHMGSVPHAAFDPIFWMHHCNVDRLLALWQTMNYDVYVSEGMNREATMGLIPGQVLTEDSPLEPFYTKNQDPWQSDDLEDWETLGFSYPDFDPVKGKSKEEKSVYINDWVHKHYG

Take `COc1ccc(CN(C(=O)Cc2ccccc2)C(C(=O)NCc2ccc(F)cc2)c2ccc(O)c(O)c2)cc1` (stereo not drawn) [Compound 5c, 2-(3,4-dihydroxyphenyl)-N-(4-fluorobenzyl)-2-(N-(4-methoxybenzyl)-2-phenylacetamido)-acetamide]: in series [1], the inhibition at 100 µM is less than 10%. Also, the MIC with E. cloacae (ATCC 49141) stood at 1.08 µM (≈ 0.571 µg/mL); against S. aureus (ATCC 23235), 0.96 µM (≈ 0.507 µg/mL); in the series with E. coli R4 (ATCC 39543), 1.98 µM (≈ 1.05 µg/mL); in series [2], 0.84 µM (≈ 0.444 µg/mL); in series [3] it was 1.04 µM (≈ 0.55 µg/mL); against E. coli R3 (ATCC 11775), 1.61 µM (≈ 0.851 µg/mL). The MIC in the series with E. coli R2 (ATCC 39544) is 1 µM (≈ 0.529 µg/mL); in the series on E. coli K12 (ATCC 25404) it was 0.45 µM (≈ 0.238 µg/mL). Also, the MBC with E. cloacae (ATCC 49141) is 1.11 µM (≈ 0.587 µg/mL); in the series with S. aureus (ATCC 23235), 1 µM (≈ 0.529 µg/mL); against E. coli R4 (ATCC 39543) it was 2.36 µM (≈ 1.25 µg/mL); in series [2] it was 0.94 µM (≈ 0.497 µg/mL); in series [3], 1.09 µM (≈ 0.576 µg/mL); in the series on E. coli R3 (ATCC 11775), 1.79 µM (≈ 0.946 µg/mL). The MBC against E. coli R2 (ATCC 39544) was 1.04 µM (≈ 0.55 µg/mL); with E. coli K12 (ATCC 25404), 0.66 µM (≈ 0.349 µg/mL). The viability at 24 h, 1 µM in “MTT cytotoxicity assay” was found to be 60.2%.
As for `CCCCN(C(=O)Cc1ccccc1)C(C(=O)NCc1ccccc1)c1ccc(O)c(O)c1` (stereo not drawn) [Compound 5g, N-benzyl-2-(N-butyl-2-phenylacetamido)-2-(3,4-dihydroxyphenyl)acetamide], in [1], the inhibition at 100 µM is greater than 10%. Further, the MIC with E. cloacae (ATCC 49141) turned out to be 0.72 µM (≈ 0.322 µg/mL); with S. aureus (ATCC 23235), 0.73 µM (≈ 0.326 µg/mL); against E. coli R4 (ATCC 39543) it was 1.5 µM (≈ 0.67 µg/mL); in series [2] it was 0.79 µM (≈ 0.353 µg/mL); in series [3], 0.7 µM (≈ 0.313 µg/mL); with E. coli R3 (ATCC 11775) it was 1.02 µM (≈ 0.455 µg/mL). For the same compound, the MIC came to 0.94 µM (≈ 0.42 µg/mL) with E. coli R2 (ATCC 39544) and 0.42 µM (≈ 0.188 µg/mL) against E. coli K12 (ATCC 25404). Besides, the MBC was found to be 0.77 µM (≈ 0.344 µg/mL) in the series on E. cloacae (ATCC 49141); 0.8 µM (≈ 0.357 µg/mL) against S. aureus (ATCC 23235); 1.41 µM (≈ 0.63 µg/mL) in the series on E. coli R4 (ATCC 39543); 0.82 µM (≈ 0.366 µg/mL) in series [2]; 0.78 µM (≈ 0.348 µg/mL) in series [3]; 1.23 µM (≈ 0.549 µg/mL) against E. coli R3 (ATCC 11775). The MBC against E. coli R2 (ATCC 39544) turned out to be 1.23 µM (≈ 0.549 µg/mL); in the series with E. coli K12 (ATCC 25404), 0.71 µM (≈ 0.317 µg/mL).
In series [1], `CCCCN(C(=O)Cc1ccccc1)C(C(=O)NCc1ccc(OC)cc1)c1ccc(O)c(O)c1` (stereo not drawn) [Compound 5h] returned an inhibition at 100 µM of less than 10%. The MIC with E. cloacae (ATCC 49141) stood at 0.74 µM (≈ 0.353 µg/mL); with S. aureus (ATCC 23235) it was 0.67 µM (≈ 0.319 µg/mL); with E. coli R4 (ATCC 39543), 1.36 µM (≈ 0.648 µg/mL); in [2], 0.73 µM (≈ 0.348 µg/mL); in series [3] it was 0.69 µM (≈ 0.329 µg/mL); in the series with E. coli R3 (ATCC 11775), 1.07 µM (≈ 0.51 µg/mL). The results for the MIC in the series with E. coli R2 (ATCC 39544) and against E. coli K12 (ATCC 25404) were 0.86 µM (≈ 0.41 µg/mL) and 0.25 µM (≈ 0.119 µg/mL), respectively. Also, the MBC against E. cloacae (ATCC 49141) came out at 0.73 µM (≈ 0.348 µg/mL); against S. aureus (ATCC 23235) it was 0.67 µM (≈ 0.319 µg/mL); against E. coli R4 (ATCC 39543), 1.42 µM (≈ 0.677 µg/mL); in series [2], 0.75 µM (≈ 0.357 µg/mL); in series [3], 0.72 µM (≈ 0.343 µg/mL); with E. coli R3 (ATCC 11775), 1.19 µM (≈ 0.567 µg/mL). Besides, the values for the MBC with E. coli R2 (ATCC 39544) and against E. coli K12 (ATCC 25404) were 1.07 µM (≈ 0.51 µg/mL) and 0.71 µM (≈ 0.338 µg/mL), respectively.
`CCCCN(C(=O)Cc1ccccc1)C(C(=O)NCc1ccc(F)cc1)c1ccc(O)c(O)c1` (stereo not drawn) [Compound 5i]: the inhibition at 100 µM in series [1] was greater than 10%. For the same compound, the MIC against E. cloacae (ATCC 49141) worked out at 1.21 µM (≈ 0.562 µg/mL); against S. aureus (ATCC 23235) it was 0.99 µM (≈ 0.46 µg/mL); in the series on E. coli R4 (ATCC 39543), 2.31 µM (≈ 1.07 µg/mL); in series [2], 0.99 µM (≈ 0.46 µg/mL); in series [3], 1.23 µM (≈ 0.571 µg/mL); in the series on E. coli R3 (ATCC 11775) it was 1.92 µM (≈ 0.892 µg/mL). Also, the figures for the MIC with E. coli R2 (ATCC 39544) and with E. coli K12 (ATCC 25404) were 1.17 µM (≈ 0.544 µg/mL) and 0.6 µM (≈ 0.279 µg/mL), respectively. The MBC amounted to 1.27 µM (≈ 0.59 µg/mL) in the series with E. cloacae (ATCC 49141); 1.05 µM (≈ 0.488 µg/mL) with S. aureus (ATCC 23235); 2.51 µM (≈ 1.17 µg/mL) in the series with E. coli R4 (ATCC 39543); 1.05 µM (≈ 0.488 µg/mL) in [2]; 1.26 µM (≈ 0.585 µg/mL) in series [3]; 2.13 µM (≈ 0.989 µg/mL) against E. coli R3 (ATCC 11775). Moreover, the MBC was found to be 1.16 µM (≈ 0.539 µg/mL) in the series with E. coli R2 (ATCC 39544) and 1.05 µM (≈ 0.488 µg/mL) against E. coli K12 (ATCC 25404).
